Data on 10 compounds can be found in ChEMBL document CHEMBL1201862, “PubChem BioAssay data set” (2004).

Calls of active or inactive are those of the source. Some results are limits rather than exact numbers.

Assay [1] deals with T1, Acyl-homoserine lactone acylase PvdQ (Pseudomonas aeruginosa (strain LESB58), UniProt Q9I194).
T1 sequence (Q9I194 whole entry): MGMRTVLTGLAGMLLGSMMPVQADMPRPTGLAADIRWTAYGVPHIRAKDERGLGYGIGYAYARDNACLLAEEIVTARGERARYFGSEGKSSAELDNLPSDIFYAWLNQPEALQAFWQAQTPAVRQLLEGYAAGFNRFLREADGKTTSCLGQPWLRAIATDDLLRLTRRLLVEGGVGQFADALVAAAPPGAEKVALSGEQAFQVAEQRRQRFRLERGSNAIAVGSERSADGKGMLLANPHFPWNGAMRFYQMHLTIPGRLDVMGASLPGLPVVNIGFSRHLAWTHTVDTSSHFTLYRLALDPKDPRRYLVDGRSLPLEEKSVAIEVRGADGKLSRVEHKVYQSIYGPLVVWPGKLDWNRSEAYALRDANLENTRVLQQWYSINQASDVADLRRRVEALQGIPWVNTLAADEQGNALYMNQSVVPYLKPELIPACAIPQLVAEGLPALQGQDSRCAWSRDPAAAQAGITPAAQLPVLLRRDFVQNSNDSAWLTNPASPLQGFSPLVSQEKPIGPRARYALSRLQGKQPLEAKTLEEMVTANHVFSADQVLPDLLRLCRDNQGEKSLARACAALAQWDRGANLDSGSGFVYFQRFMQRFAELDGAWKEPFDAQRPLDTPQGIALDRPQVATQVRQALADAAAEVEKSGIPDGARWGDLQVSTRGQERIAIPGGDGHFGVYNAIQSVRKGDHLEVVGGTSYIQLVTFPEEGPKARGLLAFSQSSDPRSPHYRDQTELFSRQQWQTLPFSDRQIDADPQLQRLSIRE
The experiment in a line: PvdQ acylase enzyme activity blockers – biochemical, fluorescence, plate reader and imaging, cherry-picks, dose response (AID 493231).

Assay [2] concerns the target Ephrin type-A receptor 4 (Mus musculus, UniProt Q03137). The experiment in a line: EphA4 ligand-binding antagonists – biochemical, colorimetric, mouse EphA4, primary screen (AID 689). Format: functional.
The target of assay [3] is Peroxisome proliferator-activated receptor gamma/Nuclear receptor corepressor 2 (Homo sapiens, UniProt P37231+Q9Y618). Format: functional.
Assay [4] concerns the target Eukaryotic translation initiation factor 4E (Mus musculus, UniProt P63073). The experiment in a line: blockers of eIF4G binding by eIF4E – biochemical, TR-FRET, dose response (AID 855).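 Note: potency for disrupting eIF4E binding to eIF4GI seen as loss of FRET.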 Format: functional.
The target in assay [5] is Photoreceptor-specific nuclear receptor (Homo sapiens, UniProt Q9Y5X4). Format: functional.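 Note: potency for compounds that break the NR2E3 corepressor complex and count as activators.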
Sequence of Photoreceptor-specific nuclear receptor (Q9Y5X4 whole entry): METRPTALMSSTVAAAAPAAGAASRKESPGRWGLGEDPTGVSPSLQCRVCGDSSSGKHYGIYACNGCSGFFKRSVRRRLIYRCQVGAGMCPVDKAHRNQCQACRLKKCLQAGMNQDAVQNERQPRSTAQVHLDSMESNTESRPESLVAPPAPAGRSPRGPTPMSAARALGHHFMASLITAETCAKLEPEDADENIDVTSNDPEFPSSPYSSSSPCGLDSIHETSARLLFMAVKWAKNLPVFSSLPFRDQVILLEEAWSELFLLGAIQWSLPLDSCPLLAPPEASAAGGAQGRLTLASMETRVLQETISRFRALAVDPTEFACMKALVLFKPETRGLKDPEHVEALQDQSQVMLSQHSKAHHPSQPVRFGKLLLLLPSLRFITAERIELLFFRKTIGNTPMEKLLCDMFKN
Assay [6] in a line: HEK-293T cell viability reduction – luminescence, B-cell screen hits, cytotoxicity control for BCR NF-kB inhibitor project, dose response (AID 489021).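 Note: HEK-293T cells carrying an NF-kB luciferase reporter; cells exposed to compound for about 14 hours before viability readout.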 Type of assay: functional, cell-based.
Assay [7] concerns the target T2, Replicative DNA helicase DnaB (Mycobacterium tuberculosis, UniProt P9WMR3).
T2 sequence (P9WMR3 whole entry): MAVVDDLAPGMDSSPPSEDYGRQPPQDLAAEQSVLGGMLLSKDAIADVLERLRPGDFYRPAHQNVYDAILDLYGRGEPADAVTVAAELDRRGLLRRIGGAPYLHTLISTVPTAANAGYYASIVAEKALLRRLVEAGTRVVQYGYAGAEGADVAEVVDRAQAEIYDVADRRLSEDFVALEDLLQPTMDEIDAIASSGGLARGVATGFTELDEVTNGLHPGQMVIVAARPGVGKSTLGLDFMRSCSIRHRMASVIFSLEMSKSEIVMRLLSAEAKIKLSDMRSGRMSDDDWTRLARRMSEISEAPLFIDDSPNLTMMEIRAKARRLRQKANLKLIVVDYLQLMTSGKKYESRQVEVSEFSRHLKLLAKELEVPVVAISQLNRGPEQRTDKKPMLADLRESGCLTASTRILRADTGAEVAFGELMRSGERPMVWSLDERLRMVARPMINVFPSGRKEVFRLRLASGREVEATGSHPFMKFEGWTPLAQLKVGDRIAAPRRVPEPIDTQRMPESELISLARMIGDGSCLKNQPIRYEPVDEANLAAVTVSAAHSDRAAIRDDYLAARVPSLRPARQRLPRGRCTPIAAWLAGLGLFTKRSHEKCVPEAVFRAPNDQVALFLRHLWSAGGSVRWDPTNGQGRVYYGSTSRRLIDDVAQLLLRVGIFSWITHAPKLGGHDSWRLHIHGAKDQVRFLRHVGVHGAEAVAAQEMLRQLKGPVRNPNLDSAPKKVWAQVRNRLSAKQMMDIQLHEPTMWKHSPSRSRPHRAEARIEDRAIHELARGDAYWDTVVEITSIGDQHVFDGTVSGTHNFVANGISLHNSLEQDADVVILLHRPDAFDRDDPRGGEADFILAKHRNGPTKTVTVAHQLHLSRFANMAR
The experiment in a line: DnaB intein splicing inhibitors, dose response, biochemical, cell-free fluorescence (AID 449749). Type of assay: functional.

Assay [8] has as its target T3, Protein RecA (Mycobacterium tuberculosis, UniProt P9WHJ3).
T3 sequence (P9WHJ3 whole entry): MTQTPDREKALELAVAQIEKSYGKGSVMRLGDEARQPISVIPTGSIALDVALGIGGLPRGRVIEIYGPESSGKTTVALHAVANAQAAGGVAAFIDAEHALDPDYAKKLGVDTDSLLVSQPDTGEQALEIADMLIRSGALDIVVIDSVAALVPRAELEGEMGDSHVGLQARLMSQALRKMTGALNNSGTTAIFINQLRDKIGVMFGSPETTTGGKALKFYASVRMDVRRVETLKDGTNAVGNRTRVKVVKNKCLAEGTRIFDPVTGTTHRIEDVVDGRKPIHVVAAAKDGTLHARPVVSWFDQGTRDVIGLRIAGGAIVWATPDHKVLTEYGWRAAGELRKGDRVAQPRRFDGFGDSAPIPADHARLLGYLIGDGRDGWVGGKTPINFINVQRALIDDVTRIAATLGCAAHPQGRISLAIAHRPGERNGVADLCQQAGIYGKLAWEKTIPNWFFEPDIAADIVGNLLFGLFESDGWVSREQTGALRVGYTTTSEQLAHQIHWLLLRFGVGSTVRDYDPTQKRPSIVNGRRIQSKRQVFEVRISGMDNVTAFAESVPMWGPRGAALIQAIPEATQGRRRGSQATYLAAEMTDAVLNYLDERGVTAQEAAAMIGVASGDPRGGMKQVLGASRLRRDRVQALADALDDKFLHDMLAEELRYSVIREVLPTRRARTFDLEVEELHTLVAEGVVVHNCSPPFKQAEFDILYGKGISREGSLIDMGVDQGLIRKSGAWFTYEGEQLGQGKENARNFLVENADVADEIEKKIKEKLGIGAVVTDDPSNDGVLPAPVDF
The experiment in a line: Fluorescence Cell-Free Homogeneous Dose Retest to Identify Inhibitors of RecA-Intein Splicing Activity. [Related pubchem assays (depositor defined):AID2097, AID2223, AID489010, AID492950]. Type of assay: functional.

For assay [9], the target named is T4, Carboxy-terminal domain RNA polymerase II polypeptide A small phosphatase 1 (Homo sapiens, UniProt Q9GZU7).
T4 sequence (Q9GZU7 whole entry): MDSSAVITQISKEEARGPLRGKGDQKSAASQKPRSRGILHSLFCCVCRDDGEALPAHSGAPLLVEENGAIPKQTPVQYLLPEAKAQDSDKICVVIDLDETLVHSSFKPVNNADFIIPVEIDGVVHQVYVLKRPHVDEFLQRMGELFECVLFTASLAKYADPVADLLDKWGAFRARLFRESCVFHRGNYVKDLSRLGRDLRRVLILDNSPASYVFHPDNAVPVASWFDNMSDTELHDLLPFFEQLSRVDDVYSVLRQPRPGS
The experiment in a line: CTDSP1 inhibitors, concentration-response, biochemical, absorbance readout, ultra-high-throughput screen actives (AID 540297). Format: functional.

Assay [10] addresses T5, Hexokinase (Trypanosoma brucei, UniProt Q38C41).
T5 sequence (Q38C41 whole entry): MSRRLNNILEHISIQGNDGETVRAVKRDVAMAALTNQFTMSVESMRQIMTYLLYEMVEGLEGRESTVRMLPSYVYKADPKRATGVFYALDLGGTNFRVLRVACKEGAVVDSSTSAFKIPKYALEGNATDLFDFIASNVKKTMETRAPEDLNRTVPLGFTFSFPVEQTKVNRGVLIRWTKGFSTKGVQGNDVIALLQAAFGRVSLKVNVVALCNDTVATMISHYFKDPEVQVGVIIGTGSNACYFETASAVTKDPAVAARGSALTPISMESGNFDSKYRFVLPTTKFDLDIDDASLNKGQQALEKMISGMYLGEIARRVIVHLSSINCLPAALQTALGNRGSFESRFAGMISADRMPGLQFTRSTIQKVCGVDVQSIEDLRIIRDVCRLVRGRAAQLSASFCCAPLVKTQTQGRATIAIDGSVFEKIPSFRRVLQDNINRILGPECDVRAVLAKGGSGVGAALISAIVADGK
The experiment in a line: Confirmation assay for inhibitors of Trypanosoma brucei hexokinase 1-Analogue-first series. [Related pubchem assays (depositor defined):AID1430, AID1632, AID2516, AID2560, AID2579, AID2600, AID449725, AID492951]. Type of assay: functional.

For assay [11], the target named is T6, Orexin/Hypocretin receptor type 1 (Homo sapiens, UniProt O43613).
T6 sequence (O43613 whole entry): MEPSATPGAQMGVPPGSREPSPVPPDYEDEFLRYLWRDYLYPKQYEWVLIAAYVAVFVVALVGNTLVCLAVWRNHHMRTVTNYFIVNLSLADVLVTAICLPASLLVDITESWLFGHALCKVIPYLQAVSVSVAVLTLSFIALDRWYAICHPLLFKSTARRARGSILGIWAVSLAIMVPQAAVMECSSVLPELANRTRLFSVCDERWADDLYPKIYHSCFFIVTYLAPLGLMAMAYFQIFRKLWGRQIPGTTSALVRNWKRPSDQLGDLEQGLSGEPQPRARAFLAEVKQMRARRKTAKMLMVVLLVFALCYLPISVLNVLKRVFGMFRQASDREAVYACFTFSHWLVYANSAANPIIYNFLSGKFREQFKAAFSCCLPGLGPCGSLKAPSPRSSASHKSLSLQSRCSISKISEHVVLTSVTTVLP
The experiment in a line: Fluorescence-based cell-based high throughput dose response assay for antagonists of the orexin 1 receptor (OX1R; HCRTR1). [Related pubchem assays (depositor defined):AID434989, AID435008, AID463079, AID485270, AID492963, AID492964, AID492965, AID493232, AID504717, AID504718]. Type of assay: functional.

The test system of assay [12] is CHO-K1. The experiment in a line: Counterscreen for antagonists of the orexin 1 receptor (OX1R; HCRTR1): Homogeneous time resolved fluorescence (HTRF)-based cell-based dose response assay to identify antagonists of the parental CHO-K1 cell line. [Related pubchem assays (depositor defined):AID434989, AID435008, AID463079, AID485270, AID492963, AID492964, AID492965, AID493232, AID504699, AID504701]. Format: functional. The settings on record: Cricetulus griseus.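 Note: potency for inhibition of ATP-stimulated IP1 production as antagonists.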

The nature of assay [13]: Counterscreen for antagonists of the orexin 1 receptor (OX1R; HCRTR1): Fluorescence-based cell-based high throughput dose response assay to identify antagonists of the parental CHO cell line. [Related pubchem assays (depositor defined):AID434989, AID435008, AID463079, AID485270, AID492963, AID492964, AID492965, AID493232, AID504699, AID504701]. Type of assay: functional.

Assay [14] deals with T6, Orexin/Hypocretin receptor type 1. The experiment in a line: Homogeneous Time Resolved Fluorescence (HTRF)-based cell-based high throughput dose response assay for antagonists of the orexin 1 receptor (OX1R; HCRTR1). [Related pubchem assays (depositor defined):AID434989, AID435008, AID463079, AID485270, AID492963, AID492964, AID492965, AID493232, AID504717, AID504718]. Format: functional.

Assay [15] deals with HeLa. The experiment in a line: ATP-based viability loss in HeLa cells – cell-based, CellTiter-Glo luminescence, cherry-pick samples, cytotoxicity control for MITF activator project, dose response (AID 540259). Conditions: Homo sapiens. Format: functional.
The target in assay [16] is Cytochrome P450 2C9 (Homo sapiens, UniProt P11712). Conditions: Potency.
Sequence of Cytochrome P450 2C9 (P11712 whole entry): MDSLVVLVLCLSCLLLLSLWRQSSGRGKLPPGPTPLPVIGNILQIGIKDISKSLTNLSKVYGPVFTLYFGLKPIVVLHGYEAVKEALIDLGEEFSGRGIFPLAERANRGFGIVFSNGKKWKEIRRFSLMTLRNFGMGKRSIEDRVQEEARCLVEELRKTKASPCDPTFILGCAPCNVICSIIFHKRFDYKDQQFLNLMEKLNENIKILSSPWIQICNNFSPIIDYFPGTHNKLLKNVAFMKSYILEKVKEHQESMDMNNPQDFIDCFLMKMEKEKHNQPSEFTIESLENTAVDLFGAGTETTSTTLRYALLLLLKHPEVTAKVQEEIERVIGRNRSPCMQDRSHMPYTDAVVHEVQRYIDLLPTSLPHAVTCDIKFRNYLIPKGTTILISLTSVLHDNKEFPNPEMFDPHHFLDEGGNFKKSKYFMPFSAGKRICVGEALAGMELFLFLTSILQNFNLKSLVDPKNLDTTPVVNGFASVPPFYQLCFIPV

Sequence of Eukaryotic translation initiation factor 4E (P63073 whole entry): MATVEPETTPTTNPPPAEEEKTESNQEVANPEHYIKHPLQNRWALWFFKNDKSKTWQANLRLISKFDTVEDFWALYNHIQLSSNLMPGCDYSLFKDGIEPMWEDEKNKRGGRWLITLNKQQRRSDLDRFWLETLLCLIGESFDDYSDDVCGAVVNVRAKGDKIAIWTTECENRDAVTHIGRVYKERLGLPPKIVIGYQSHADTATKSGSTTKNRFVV
Sequence of Ephrin type-A receptor 4 (Q03137 whole entry): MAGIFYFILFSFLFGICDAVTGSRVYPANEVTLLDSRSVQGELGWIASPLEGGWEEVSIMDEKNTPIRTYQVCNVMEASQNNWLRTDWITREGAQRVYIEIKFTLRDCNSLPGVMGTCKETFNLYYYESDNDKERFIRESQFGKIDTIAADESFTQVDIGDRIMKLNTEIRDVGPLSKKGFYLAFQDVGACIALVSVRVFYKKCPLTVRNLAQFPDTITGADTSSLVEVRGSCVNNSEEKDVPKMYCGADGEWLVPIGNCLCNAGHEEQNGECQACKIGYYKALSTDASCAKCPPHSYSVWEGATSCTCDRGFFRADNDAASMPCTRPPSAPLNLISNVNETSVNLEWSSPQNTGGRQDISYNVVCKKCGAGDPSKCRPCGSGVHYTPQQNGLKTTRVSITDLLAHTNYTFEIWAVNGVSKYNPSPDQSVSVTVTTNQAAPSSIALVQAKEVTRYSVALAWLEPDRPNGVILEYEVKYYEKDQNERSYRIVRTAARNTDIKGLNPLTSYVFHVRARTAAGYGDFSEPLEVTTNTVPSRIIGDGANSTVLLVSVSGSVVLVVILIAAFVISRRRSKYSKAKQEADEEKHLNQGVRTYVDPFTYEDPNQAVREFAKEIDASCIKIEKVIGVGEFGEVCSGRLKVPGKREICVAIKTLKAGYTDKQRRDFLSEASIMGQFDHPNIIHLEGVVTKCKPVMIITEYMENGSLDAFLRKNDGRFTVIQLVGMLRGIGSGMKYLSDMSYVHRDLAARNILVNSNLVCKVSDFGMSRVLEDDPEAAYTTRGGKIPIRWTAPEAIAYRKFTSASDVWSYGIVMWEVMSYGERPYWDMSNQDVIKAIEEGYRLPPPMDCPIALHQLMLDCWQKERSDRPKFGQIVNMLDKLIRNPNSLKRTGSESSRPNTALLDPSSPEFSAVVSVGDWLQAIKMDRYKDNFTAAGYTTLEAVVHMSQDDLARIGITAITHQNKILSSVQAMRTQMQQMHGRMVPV

Turning to `CCOC(=O)CCCn1ncn2c(cc3occc32)c1=O`, the AC50 in assay [1] was 12 µM (active).
Regarding `COC(=O)Sc1nnc(-c2ccc(Br)cc2)o1`, the half-inhibitory concentration (IC50) in assay [2] was 13 µM (active); in assay [3] it was 3.53 µM (active); in assay [4], 30.7 µM (active); in [5] it was > 39.8 µM (not active).
With `COc1cc(-c2[nH]nc3c2C(c2ccco2)C(C#N)=C(N)O3)cc(OC)c1OC` (stereo not given), the IC50 in assay [6] is > 80 µM (inactive). In addition, the AC50 in [7] is 6.62 µM (active). In addition, in [8], the concentration giving a half-maximal response (EC50) was 531 nM (active).
Turning to `Cc1ccc(-n2nc(-c3ccco3)cc2C(=O)O)c(C)c1`, the IC50 is 50 µM (inactive) in assay [4] and 4.94 µM (active) in assay [9].
On to `CC(C)(C)c1ccc(C(=O)Nc2c(C(=O)O)ccc(Cl)c2Cl)cc1`, for which the IC50 in assay [10] was > 25 µM (inactive).
On the same count and under the same terms, with `CC(C)Cc1ccc(C(=O)Nc2cc(Cl)ccc2C(=O)O)cc1` the figure was 7.25 µM (active); with `O=C(Nc1cc(Cl)ccc1C(=O)O)c1ccoc1`, > 25 µM (inactive).
Consider `O=C1NCC(c2ccccc2)C1C(=O)N/N=C\c1ccc(-c2cccc(Cl)c2Cl)o1` (stereo not given), for which the IC50 was 2.32 µM (active) in assay [11], > 66.2 µM (inactive) in assay [12], 24.7 µM (inactive) in [13] and 648 nM (active) in assay [14].
Turning to `COc1ccccc1/C=C1\SC(=S)N(CCC(=O)Nc2cccc(O)c2)C1=O`, the IC50 in assay [6] is 60.6 µM (inactive).
As for `COc1cc(O)c2c(=O)cc(-c3ccccc3)oc2c1` [TECHTOCHRYSIN], the AC50 in assay [15] is 46.2 µM (active); in assay [16] it was 2.51 µM (inconclusive).
